Measurements as given in paper PMC10783034, “Pharmacokinetic and pharmacodynamic evaluation of the atypical tetracyclines chelocardin and amidochelocardin in murine infection models” (Microbiology Spectrum, 2023).

How the values were obtained:
[1] = tested on: E. coli ATCC 25922; experiment: Neutropenic thigh infection model in CD-1 mice; assay type: in vivo; conditions: for bacterial burden in the thigh relative to stasis (pre-treatment group): 50 mg/kg IV QD; for tolerability: doses up to 50 mg/kg IV in the neutropenic thigh infection model
Description: (§1) The inoculum for K. pneumoniae ATCC 43816 was prepared freshly as described previously to yield 1 × 10^4 cfu/mL ([56]). The inoculum of the E. coli ATCC 25922 was diluted from a frozen stock to 1.4 × 10^6 cfu/ml. N = 6 animals per group were used for both tested strains. N = 4 mice were used in the pre-treatment group in the neutropenic thigh infection model with E. coli ATCC 25922. Mice were rendered neutropenic by administration of 150 mg/kg and 100 mg/kg cyclophosphamide intraperitoneally on days −4 and −1, respectively. On the day of infection (day 0), mice received 30 µL of the inoculum of K. pneumoniae ATCC 43816 into each lateral thigh under isoflurane anesthesia, corresponding to 6 × 10^2 cfu/mouse. In the model with E. coli, mice received 50 µL of the inoculum of E. coli into each lateral thigh under isoflurane anesthesia, corresponding to 1.4 × 10^5 cfu/mouse. Whilst still under anesthesia, mice were administered a dose of Buprenorphine (0.03 mg/kg) subcutaneously for pain relief. 24 hours after infection, mice were euthanized by slowly introducing CO2 and cardiac puncture to remove blood from the heart immediately after death. Kidneys and thighs were aseptically removed. 24 hours after infection, the clinical score of every individual animal was assessed. Clinical scoring comprises the assessment of different parameters such as spontaneous behavior, posture, appearance, and provoked behavior. Each parameter was assessed with a score of 0 to 3 (ascending severity from 0 to 3). The humane endpoint was reached when the clinical score of a single parameter was 3 or if the total clinical score was higher than 8. Whole blood was collected into Eppendorf tubes coated with 0.5 M EDTA. Organs were homogenized in 0.9% NaCl solution. Organs and blood were plated onto agar plates in duplicates in serial dilutions and incubated at 37°C for 24 hours. 25 µL per dilution of the homogenized organ was spotted onto agar plates. In addition, 1 mL of homogenized organ is streaked onto an agar plate in technical duplicates. If no single colony is observed then, this would result in 0 cfu/mL. Thus, the threshold of detection is 0 log10 cfu/g. The groups used in the different neutropenic thigh infection models are found in Tables S4 through S7. In brief, levofloxacin with 3.3 mg/kg TID IP was used as a positive control antibiotic for the K. pneumoniae model, whereas ciprofloxacin with 20 mg/kg BID IV was used for the E. coli model, respectively. The rationale for TID dosing was based on the PK/PD index of fAUC/MIC for fluoroquinolones ([57] [–] [59]). […] Moreover, CHD and CDCHD were administered at 10 mg/kg SC QID (t = 1,3,5,7 hours), 15 mg/kg SC TID (t = 1,4,7 hours), and 50 mg/kg SC QD (t = 1 hour) (Tables S5 and S6). In the E. coli neutropenic thigh infection model, CHD and CDCHD, respectively, were administered at 50 mg/kg IV QD (t = 1 hour) and 15 mg/kg IV BID (t = 1 and 6 hours) (Table S7).
(§2) For the neutropenic thigh infection model with E. coli ATCC 25922, the thighs were regarded as two independent infection sites throughout the experiment. For statistical analysis, individual thighs (left and right) were treated as separate samples although these were not completely independent values. For the neutropenic thigh infection model with K. pneumoniae ATCC 43816, the individual thighs (left and right) were treated as one sample. For the efficacy models, the non-parametric Kruskal-Wallis test was used with GraphPad Prism 9.4.1. For the ascending urinary tract infection model, an ordinary one-way ANOVA with Dunnett’s multiple comparison test was used with GraphPad Prism 9.4.1.

[2] = tested on: K. pneumoniae ATCC 43816; experiment: Neutropenic thigh infection model in CD-1 mice; assay type: in vivo
Description: as §1, §2

[3] = 24 hours after infection, CHD/CDCHD 10 mg/kg SC QD or BID, levofloxacin 3.3 mg/kg IP TID, vs vehicle
[4] = higher-dose studies: 10 mg/kg SC QID, 15 mg/kg SC TID, 50 mg/kg SC QD, levofloxacin 3.3 mg/kg IP TID

Row | Structure (SMILES) | bacterial burden in the thigh relative to stasis (pre-treatment group) [1] | bacterial burden in kidney ([1]; both IV groups (15 mg/kg IV BID and 50 mg/kg IV QD)) | tolerability [1] | bacterial burden in the kidney ([2]; 10 mg/kg SC BID, vs vehicle control, similar to levofloxacin, not statistically significant) | bacterial burden in blood ([2]; 10 mg/kg SC QID, 15 mg/kg SC TID, 50 mg/kg SC QD (all three groups)) | bacterial burden in the thigh ([2]; 50 mg/kg SC QD) | reduction of bacterial burden in the thigh ([2]; 50 mg/kg SC QD) | bacterial burden in blood [2, 3] | bacterial burden in the kidney [2, 4] | bacterial burden in kidney ([1]; 15 mg/kg IV BID) | bacterial burden in the thigh ([1]; 15 mg/kg IV BID) | kill in the thigh compared to the pre-treatment group ([1]; 50 mg/kg IV) | reduction in the thigh compared to the vehicle ([1]; 50 mg/kg IV) | bacterial burden in the thigh ([2]; 10 mg/kg SC QID, 15 mg/kg SC TID, 50 mg/kg SC QD (all three dose levels)) | bacterial burden in the kidney ([2]; 50 mg/kg SC QD) | bacterial burden in blood ([2]; 50 mg/kg SC QD, similar range as levofloxacin, statistical significance missed)
1 | Cc1ccc2c(C)c3c(c(O)c2c1O)C(=O)C1(O)C(=O)C(C(N)=O)=C(O)C(N)C1C3 (centres unmarked) [CDCHD, 2-carboxamido-2-deacetyl-chelocardin] | did not reduce bacterial load back to stasis | pronounced reduction of bacterial burden | well tolerated | a reduction of bacterial burden was observed in the kidney | a reduction of bacterial burden was observed | a statistically significant reduction of bacterial burden in the thigh was observed | approximately one | The same was found in blood | reduced bacterial burden in the kidney to apparent sterilization |  |  |  |  |  |  | 
2 | CC(=O)C1=C(O)[C@H](N)[C@@H]2Cc3c(c(O)c4c(O)c(C)ccc4c3C)C(=O)[C@]2(O)C1=O [CHD, chelocardin] | reduction of bacterial burden to levels below stasis |  | well tolerated |  |  |  |  | The same was found in blood | no statistically significant effect was observed | moderate reduction | reduced bacterial burden in the thigh | ~1 log10-unit | 5 log10-unit | no effect was observed in the thigh | a slight reduction of bacterial burden | the bacterial burden was reduced
